Measurements published in DBAASP.
Converted amounts (≈) assume the structure as drawn. “And” between values parts separate entries of the source, which are not always exact repeats. Equal entries are not always repeated. Values belong to the compound of their own block, whether it stands above or below them.

How the values were obtained:
Assay in all cases: ≥ marks a high value that may be exact or a test limit, other limits are often not marked, values filed in µg/mL are converted to µM
[1] = system: Escherichia coli O18:K1:H7 Bort
[2] = system: Serratia marcescens ATCC 8100
[3] = system: Escherichia coli DH5alpha
[4] = system: Staphylococcus aureus ATCC 9144
[5] = system: Staphylococcus epidermidis ATCC 12228
[6] = system: Bacillus subtilis ATCC 6633
[7] = system: Escherichia coli ATCC 10536
[8] = system: Escherichia coli ATCC 25922
Serratia marcescens = system: Serratia marcescens
[9] = system: Staphylococcus aureus Cowan 1
Enterococcus faecium = system: Enterococcus faecium
Candida albicans = system: Candida albicans
[10] = system: Staphylococcus aureus ATCC 25923
Staphylococcus aureus = system: Staphylococcus aureus
Bacillus megaterium Bm11 = system: Bacillus megaterium Bm11
Escherichia coli ML-35 = system: Escherichia coli ML-35
Escherichia coli D21 = system: Escherichia coli D21
Cryptococcus neoformans = system: Cryptococcus neoformans
Streptococcus agalactiae = system: Streptococcus agalactiae
[11] = system: Salmonella enterica subsp. enterica serovar Typhimurium ATCC 14028
[12] = system: Pseudomonas aeruginosa ATCC 27853
Fusarium culmorum = system: Fusarium culmorum
Fusarium oxysporum = system: Fusarium oxysporum
Fusarium haematococcum = system: Fusarium haematococcum
Neurospora crassa = system: Neurospora crassa
Trichoderma viride = system: Trichoderma viride
Alternaria brassicicola = system: Alternaria brassicicola
[13] = system: Trichophyton mentagrophytes
Aspergillus fumigatus = system: Aspergillus fumigatus
Beauveria bassiana = system: Beauveria bassiana
Botrytis cinerea = system: Botrytis cinerea
[14] = system: Staphylococcus aureus NCTC 8325
[15] = system: Staphylococcus aureus 127/08
[16] = system: Staphylococcus aureus S908
[17] = system: Staphylococcus aureus T4/6
[18] = system: Candida albicans ATCC 90028
[19] = system: Staphylococcus aureus V4180
[20] = system: Staphylococcus aureus 274/08
[21] = system: Escherichia coli ATCC 25726
[22] = system: Acinetobacter baumannii I NM8
[23] = system: Staphylococcus aureus 145/08
[24] = system: Klebsiella pneumoniae ATCC 700603

- MIC [1]: 2 µM (≈ 6.26 µg/mL)
- MIC [2]: 2 µM (≈ 6.26 µg/mL)
- MIC [3]: 2.4 µM (≈ 7.51 µg/mL)
- MIC [4]: 3 µM (≈ 9.39 µg/mL)
- MIC [5]: 1 µM (≈ 3.13 µg/mL)
- MIC [6]: 1.6 µM (≈ 5.01 µg/mL)
- MIC [7]: 2.6 µM (≈ 8.14 µg/mL)
- MIC [8]: 2 µM (≈ 6.26 µg/mL)
- MIC (Serratia marcescens): 8 µM (≈ 25 µg/mL)
- MIC [9]: 1 µM (≈ 3.13 µg/mL)
- MIC (Enterococcus faecium): 2.83 µM (≈ 8.86 µg/mL)
- MIC (Candida albicans): 8 µM (≈ 25 µg/mL)
- MIC [10]: 2 µM (≈ 6.26 µg/mL)
- MIC (Staphylococcus aureus): 2.83 µM (≈ 8.86 µg/mL)
- MIC (Bacillus megaterium Bm11): 2 µM (≈ 6.26 µg/mL)
- MIC (Escherichia coli ML-35): 2 µM (≈ 6.26 µg/mL)
- MIC (Escherichia coli D21): 0.5 µM (≈ 1.57 µg/mL)
- MIC (Cryptococcus neoformans): 4 µM (≈ 12.5 µg/mL)
- MIC (Streptococcus agalactiae): 2.83 µM (≈ 8.86 µg/mL)
- MIC [11]: 1 µM (≈ 3.13 µg/mL)
- MIC [12]: 2 µM and > 1 µM
SMILES: CC[C@H](C)[C@H](NC(=O)[C@H](CCCN=C(N)N)NC(=O)[C@@H](NC(=O)[C@@H](NC(=O)[C@@H]1CCCN1C(=O)[C@@H](NC(=O)[C@@H](NC(=O)[C@@H](NC(=O)[C@@H]1CCCN1C(=O)CNC(=O)[C@H](Cc1ccc(O)cc1)NC(=O)[C@H](CCCCN)NC(=O)[C@H](CCCCN)NC(=O)[C@H](Cc1c[nH]c2ccccc12)NC(=O)[C@H](C)NC(=O)[C@H](CCCN=C(N)N)NC(=O)[C@H](CC(C)C)NC(=O)[C@@H](NC(=O)[C@H](CCCCN)NC(=O)[C@H](CCCN=C(N)N)NC(=O)CNC(=O)[C@H](CC(C)C)NC(=O)[C@H](CO)NC(=O)[C@H](CCCN=C(N)N)NC(=O)[C@H](CC(C)C)NC(=O)CNC(=O)CN)[C@@H](C)CC)[C@@H](C)CC)[C@@H](C)CC)C(C)C)[C@@H](C)CC)[C@@H](C)CC)C(=O)NCC(N)=O [GGLRSLGRKILRAWKKYGPIIVPIIRIG]

- MIC (Fusarium culmorum): 12.5 µM (≈ 34.4 µg/mL)
- MIC (Fusarium oxysporum): 12.5 µM (≈ 34.4 µg/mL)
- MIC (Fusarium haematococcum): 6.25 µM (≈ 17.2 µg/mL)
- MIC (Neurospora crassa): ≥ 50 µM
- MIC (Trichoderma viride): 6.25 µM (≈ 17.2 µg/mL)
- MIC (Alternaria brassicicola): 6.25 µM (≈ 17.2 µg/mL)
- MIC [13]: ≥ 100 µM
- MIC (Aspergillus fumigatus): ≥ 100 µM
- MIC (Beauveria bassiana): ≥ 100 µM
- MIC (Botrytis cinerea): ≥ 100 µM
SMILES: CC[C@H](C)[C@H](NC(=O)[C@H](Cc1cnc[nH]1)NC(=O)[C@H](CCC(=O)O)NC(=O)CNC(=O)[C@H](Cc1cnc[nH]1)NC(=O)[C@H](CC(N)=O)NC(=O)[C@H](Cc1ccccc1)NC(=O)[C@@H](NC(=O)[C@H](CCCCN)NC(=O)[C@@H](NC(=O)[C@H](CCC(N)=O)NC(=O)[C@@H](NC(=O)[C@H](Cc1cnc[nH]1)NC(=O)CNC(=O)[C@H](Cc1ccccc1)NC(=O)[C@H](CC(N)=O)NC(=O)[C@@H]1CCCN1C(=O)[C@H](CC(C)C)NC(=O)[C@H](CC(=O)O)NC(=O)[C@H](CCC(=O)O)NC(=O)[C@@H](N)Cc1ccccc1)[C@@H](C)CC)C(C)C)C(C)C)C(=O)N[C@@H](Cc1cnc[nH]1)C(=O)N[C@@H](Cc1cnc[nH]1)C(=O)O [FEDLPNFGHIQVKVFNHGEHIHH]

- MIC [14]: ≥ 80 µM
- MIC [15]: 5 µM (≈ 9.08 µg/mL)
- MIC [16]: 5 µM (≈ 9.08 µg/mL)
- MIC [8]: 50 µM (≈ 90.8 µg/mL)
- MIC [17]: 5 µM (≈ 9.08 µg/mL)
- MIC [18]: ≥ 100 µM
- MIC [19]: 5 µM (≈ 9.08 µg/mL)
- MIC [20]: 5 µM (≈ 9.08 µg/mL)
- MIC [21]: ≥ 50 µM
- MIC [22]: 6 µM (≈ 10.9 µg/mL)
- MIC [23]: 5 µM (≈ 9.08 µg/mL)
- MIC [12]: 50 µM (≈ 90.8 µg/mL)
- MIC [24]: 50 µM (≈ 90.8 µg/mL)
SMILES: CC(C)C[C@H](NC(=O)[C@H](CC(C)C)NC(=O)[C@H](CC(N)=O)NC(=O)[C@H](CO)NC(=O)CNC(=O)[C@@H](NC(=O)[C@H](CCCCN)NC(=O)[C@H](CC(C)C)NC(=O)CNC(=O)[C@@H](NC(=O)[C@H](CCCCN)NC(=O)[C@H](CC(C)C)NC(=O)[C@H](CC(C)C)NC(=O)[C@H](CO)NC(=O)CNC(=O)[C@H](CC(C)C)NC(=O)[C@H](Cc1ccccc1)NC(=O)CN)[C@@H](C)O)C(C)C)C(N)=O [GFLGSLLKTGLKVGSNLL]
